Results taken from ChEMBL document CHEMBL5357061, “Enhanced Inhibition of Cancer Cell Migration by a Planar Catechin Analog” (ACS Med Chem Lett, 2024).
Active and inactive are the calls of the source. No cut-off for these calls is given here.

Columns and labels:
RGK1 = experiment: Inhibition of cell migration in rat RGK1 cells assessed as reduction in healing of scratched areas at 200 uM measured after 12 hrs by scratch-wound healing assay; type: functional, cell-based
RGM1 = experiment: Inhibition of cell migration in rat RGM1 cells assessed as reduction in healing of scratched areas at 200 uM measured after 12 hrs by scratch-wound healing assay; type: functional, cell-based

Row | Structure (SMILES) | inhibition (RGK1) | inhibition (RGM1)
1 | Oc1cc(O)c2c(c1)O[C@H](c1ccc(O)c(O)c1)[C@@H](O)C2 | inactive | inactive
2 | CC1(C)O[C@H]2Cc3c(O)cc(O)cc3O[C@@H]2c2cc(O)c(O)cc21 | Active | Active
